# Experimental data from article PMC10304470, “Characterization of the Antimicrobial Activities of Trichoplusia ni Cecropin A as a High-Potency Therapeutic against Colistin-Resistant Escherichia coli” (Pharmaceutics, 2023).
# Peptide text beside a SMILES is read from it.
# How the values were obtained:
# [1] = system: LPS-stimulated RAW 264.7 cells; experiment: IL-6 secretion in LPS-stimulated macrophages, ELISA; type: cell-based, mouse; conditions: 5 μM peptide, 1 h pretreatment, 20 ng/mL LPS, 16 h
# Method: Murine macrophage RAW 264.7 cells were used to measure the anti-inflammatory activities of peptides. Culture plates (96-well) were seeded at a density of 1 × 10^5 cells/well and stimulated with 20 ng/mL LPS (O111:B4; Sigma-Aldrich) for 16 h after 1 h pretreatment with each concentration of peptide (0.6 to 10 μM). The control is an untreated cell. The culture supernatant was added to an equal volume of Griess reagent (Sigma-Aldrich), and the absorbance was measured at 540 nm. Nitrite production was quantified using a standard curve constructed using NaNO2.
# Interleukin-6 (IL-6)-specific enzyme-linked immunosorbent assays (ELISA; R&D Systems, Minneapolis, MN, USA) were performed according to the method specified by the manufacturer. Briefly, cell culture supernatants were added to immune plates treated with the capture antibody, followed by the detection antibody and streptavidin-horseradish peroxidase. For each step, the plates were washed twice with PBS containing 0.05% Tween 20. The plates were incubated with tetramethylbenzidine substrate (Invitrogen, Carlsbad, CA, USA), and the reaction was stopped with 2 N H2SO4 to measure absorbance at 450 nm. A standard graph of each marker was plotted and quantified.
# [2] = system: sheep red blood cells (sRBCs); experiment: Hemolysis; type: cell-based; conditions: 100 μM peptide, 1 h, 37 °C
# Method: Sheep red blood cells (sRBCs; KisanBio, Seoul, Republic of Korea) were added to three volumes of phosphate-buffered saline (PBS; 35 mM phosphate buffer containing 150 mM NaCl, pH 7.4) and centrifuged five times at 4 °C, 1000× g for 5 min, followed by a final suspension in PBS at 4% (w/v). Peptides serially diluted from 100 μM to 3.1 μM in PBS at 100 μL in a 96-well plate were prepared, and an equal volume of blood solution was added. After incubation at 37 °C for 1 h, the plates were centrifuged for 5 min at 4 °C, 1000× g. The absorbance of the supernatant was measured at 405 nm. The 100% hemolysis control was 0.1% Triton-X 100 added to the blood solution; the negative control was blood solution added to PBS.
# [3] = system: ColREC 12; experiment: Biofilm inhibition assay, crystal violet; type: cell-based, Escherichia coli; conditions: ColREC 12, 2 μM peptide, 16 h
# Method: To quantify the biofilm inhibitory activity of each peptide, ColREC 1557 and ColREC 12 were cultured in Luria–Bertani (LB) broth overnight and then sub-cultured in MH broth. Different concentrations of peptide (from 1 μM to 64 μM) were prepared in 96-well plates using MH broth (containing 0.2% glucose) and incubated with bacteria (2 × 10^5 cells/mL) at 37 °C for 16 h. After incubation, the culture medium was removed and methanol was added as a fixative for 15 min. The completely dried plates were stained for 2 h by adding 100 μL of staining solution (0.1% (w/v) crystal violet in 0.25% (v/v) acetic acid). The residual staining solution was gently rinsed off three times using distilled water. Subsequently, 90% ethanol was used to dissolve the dye, and absorbance was measured at 600 nm. The untreated bacterial group was used as a control to compare biofilm production rates.
# [4] = system: colistin-resistant A. baumannii NMS 1915 (ColRAB 1915); conditions: MH broth, 2 × 10^5 cells/mL, 16 h, 37 °C, OD600, >95% killing
# Text: (§1) E. coli (KCTC 1682) was obtained from the Korean Collection for Type Cultures (KCTC, Jeongeup, Republic of Korea), and Acinetobacter baumannii (KCCM 40203) and Pseudomonas aeruginosa (KCCM 11328) from the Korea Culture Center of Microorganisms (KCCM, Seoul, Republic of Korea). Klebsiella pneumoniae (NCCP 16054), colistin-resistant E. coli NMA 1557 (ColREC 1557), NMS 12 (ColREC 12), and colistin-resistant A. baumannii NMS 1915 (ColRAB 1915), as well as colistin-resistant K. pneumoniae NMS 139 (ColRKP 139), were obtained from the National Institute of Health Multidrug Resistant Bacteria Specialized Pathogen Resources Bank (Osong, Republic of Korea).
# (§2) The peptides dissolved at 10 mg/mL in deionized water were serially diluted from 64 μM to 0.5 μM in 96-well plates using Mueller–Hinton (MH) broth, and bacteria cultured to exponential growth were added at 2 × 10^5 cells/mL. The group of bacteria that grew untreated in the broth was set as the positive control, and the uninoculated broth as the negative control. Dissolved peptides are colorless and equal to the OD value of the medium only. After 16 h incubation at 37 °C, the absorbance at 600 nm was measured using a SpectraMAX microplate reader (Molecular Devices, San Jose, CA, USA).
# [5] = system: RAW 264.7 cells; experiment: Cytotoxicity, WST-8; type: cell-based, mouse; conditions: 100 μM peptide, 24 h
# Method: (§3) Murine macrophage RAW 264.7 cells and mouse fibroblast L-929 cells were used for research and were purchased from the Korea Cell Line Bank (Seoul, Republic of Korea). Both cells were cultured in Dulbecco’s Modified Eagle’s Medium (DMEM; Welgene, Gyeongsan, Republic of Korea) supplemented with 10% fetal bovine serum and 1% antibiotics (penicillin/streptomycin) at 37 °C in the presence of 5% CO2. To measure the cytotoxicities of peptides against RAW 264.7 cells and L-929 cells, both cell lines were seeded at a density of 1 × 10^5 cells/well in a 96-well plate, to which each concentration of peptide solution (from 1.6 μM to 100 μM) was added, followed by incubation for 22 h. Subsequently, WST-8 (Biomax Co., Ltd., Guri, Republic of Korea) was added at 10% volume of the final solution, and the mixture was incubated for an additional 2 h. Absorbance was measured at 450 nm. Percentages were calculated based on untreated cells.
# [6] = system: L-929 cells; experiment: Cytotoxicity, WST-8; type: cell-based, mouse; conditions: up to 100 μM peptide, 24 h
# Method: as §3
# [7] = system: colistin-resistant K. pneumoniae NMS 139 (ColRKP 139); type: cell-based, Klebsiella pneumoniae; conditions: MH broth, 2 × 10^5 cells/mL, 16 h, 37 °C, OD600, >95% killing
# Text: as §1
# as §2, with “The antibacterial abilities of the peptides (T. ni cecropin, cecropin A, polymyxin B, colistin, and melittin) were determined using the broth dilution method as previously reported. The peptides” for “The peptides”
# [8] = system: all bacterial strains; experiment: Average MIC over all strains and relative selective index; type: cell-based; conditions: 8 strains; MIC above 64 μM taken as 128 μM
# Method: as §2, with “The antibacterial abilities of the peptides (T. ni cecropin, cecropin A, polymyxin B, colistin, and melittin) were determined using the broth dilution method as previously reported. The peptides” for “The peptides”
smiles,measurement,setting,value
"CC[C@H](C)CCCCC(=O)N[C@@H](CCN)C(=O)N[C@H](C(=O)N[C@@H](CCN)C(=O)N[C@H]1CCNC(=O)[C@H]([C@@H](C)O)NC(=O)[C@H](CCN)NC(=O)[C@H](CCN)NC(=O)[C@H](CC(C)C)NC(=O)[C@@H](CC(C)C)NC(=O)[C@H](CCN)NC1=O)[C@@H](C)O [colistin] (HELM PEPTIDE1{[CC[C@H](C)CCCCC(=O)[*:2]].[Dab].T.[Dab].[Dab].[Dab].[dL].L.[Dab].[Dab].T}$PEPTIDE1,PEPTIDE1,5:R3-11:R2$$$V2.0; N-terminus assumed; bridges inferred)",inhibition of IL-6 secretion,[1],over 90%
same,hemolytic activity,[2],no hemolytic activity
same,inhibition of biofilm formation,[3],28.9%
same,Minimal Inhibitory Concentration,[4],>64 µM
same,cell viability,[5],70.1%
same,viability / survival rate,[6],95.0%
same,Minimal Inhibitory Concentration,[7],>64 µM
same,"GM (geometric mean, average MIC value of all bacterial strains)",[8],33.72 µM
